Measured values taken from patent publication US20250084078A1, “FUSED RING-SUBSTITUTED SIX-MEMBERED HETEROCYCLIC COMPOUND, AND PREPARATION METHOD THEREFOR AND USE THEREOF” (GENFLEFT THERAPEUTICS (SHANGHAI) INC., priority 2022, published 2025).

Tests used:
HPK1 [1] = biological target: T1, HPK1 (Homo sapiens, UniProt Q92918); experiment: HPK1 kinase activity assay (ADP-Glo); details: 1 nM HPK1, 10 μM ATP, 0.1 μg/μL MBP
T1 sequence (Q92918 1-346): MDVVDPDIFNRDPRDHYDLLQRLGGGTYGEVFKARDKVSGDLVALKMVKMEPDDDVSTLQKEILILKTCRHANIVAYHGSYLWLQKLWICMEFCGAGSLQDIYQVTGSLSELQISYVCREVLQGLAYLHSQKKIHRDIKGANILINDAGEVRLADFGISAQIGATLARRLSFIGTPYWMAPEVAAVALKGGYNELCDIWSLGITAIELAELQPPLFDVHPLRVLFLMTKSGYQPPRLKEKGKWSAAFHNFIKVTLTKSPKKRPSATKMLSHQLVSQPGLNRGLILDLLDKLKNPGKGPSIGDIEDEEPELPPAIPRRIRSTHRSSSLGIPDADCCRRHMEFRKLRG
Protocol: Preparation of buffer: Ix reaction buffer (40 mM Tris-HCl, 20 mM MgCl2, 0.01% Brij35, 50 μM DTT, 0.1 mg/ml BSA) was prepared using sterile water, which was prepared and used on the day of the experiment.
(§1) Preparation of 1000× drug stock plate: a 1000× compound stock plate was prepared. […] The compound stock plate was sealed with a sealing film and stored in a −20° C. refrigerator for later use.
Compound preparation and dosing: the 1000× drug stock plate was taken and melted at room temperature in the dark. Then 5× drug intermediate plate was prepared using reaction buffer and mixed well. 2 μL was transferred from the 5× drug intermediate plate into a 384-well plate, and negative control well and positive control well (in which 2 μL reaction buffer containing 0.5% DMSO was added) were set. Each point was repeated twice.
Preparation and incubation of reaction mixture: HPK1 protein was diluted to a 2.5× working solution with reaction buffer. 4 μL 2.5×HPK1 protein was added to each well containing test compound and positive control well, and 4 μL of reaction buffer without HPK1 protein was added to the negative control well. The obtained mixture was centrifuged at 1000 rpm for 1 min and then incubated in a 20° C. incubator for 15 min. A 2.5× mixed working solution of MBP protein and ATP was prepared with reaction buffer at concentrations of 0.5 μg/μL and 50 μM, respectively. 4 μL of the mixed working solution of MBP and ATP was added to each well, centrifuged at 1000 rpm for 1 min, and then incubated in a 20° C. incubator for 90 min.
ADP-Glo detection and reading plate: 10 μl ADP-Glo was added to each well of the test plate. The resulting mixture was centrifuged at 1000 rpm for 1 min and incubated in a 20° C. incubator for 60 min. Then 10 μL of the final incubation solution was transferred from the test plate to a new 384-well plate. 10 μL of kinase detection reagent was added to each well, centrifuged at 400 g for 1 min, and incubated in a 20° C. incubator for 60 min Chemiluminescent signals were read by a microplate reader.

HPK1 [2] = biological target: HPK1 (Homo sapiens, UniProt Q92918); experiment: SLP76 phosphorylation assay (intracellular HPK1 inhibitory activity, p-SLP76 S376 ELISA in Jurkat cells); details: p-SLP76 IC50, Jurkat, Clone E6-1 cells; 1 h compound pre-incubation; anti-CD3 beads stimulation 20 min; Phospho-SLP-76 (Ser376) ELISA
Target sequence in this assay (Q92918 whole entry): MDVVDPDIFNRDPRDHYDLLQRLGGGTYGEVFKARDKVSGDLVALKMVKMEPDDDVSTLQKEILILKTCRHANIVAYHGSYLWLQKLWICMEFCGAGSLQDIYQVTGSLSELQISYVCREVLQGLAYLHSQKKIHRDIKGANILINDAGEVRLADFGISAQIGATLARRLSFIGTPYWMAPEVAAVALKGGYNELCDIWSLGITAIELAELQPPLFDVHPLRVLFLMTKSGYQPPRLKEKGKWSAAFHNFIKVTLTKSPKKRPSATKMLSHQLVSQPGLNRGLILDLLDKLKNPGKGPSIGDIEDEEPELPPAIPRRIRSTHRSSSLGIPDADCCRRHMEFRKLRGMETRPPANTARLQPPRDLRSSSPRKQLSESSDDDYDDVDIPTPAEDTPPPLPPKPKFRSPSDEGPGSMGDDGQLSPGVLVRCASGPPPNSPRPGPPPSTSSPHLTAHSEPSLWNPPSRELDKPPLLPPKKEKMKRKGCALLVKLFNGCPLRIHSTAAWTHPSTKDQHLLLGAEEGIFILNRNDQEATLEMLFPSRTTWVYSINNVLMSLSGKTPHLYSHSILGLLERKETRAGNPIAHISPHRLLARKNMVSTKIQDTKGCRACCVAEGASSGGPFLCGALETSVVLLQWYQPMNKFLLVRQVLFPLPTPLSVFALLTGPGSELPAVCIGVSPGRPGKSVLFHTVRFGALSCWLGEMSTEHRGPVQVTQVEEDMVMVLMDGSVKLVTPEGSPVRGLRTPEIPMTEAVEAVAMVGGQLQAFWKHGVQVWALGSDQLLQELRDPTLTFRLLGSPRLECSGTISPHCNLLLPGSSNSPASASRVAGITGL
Protocol: SLP76 Phosphorylation Assay
Intracellular HPK1 inhibitory activity was tested by the detection of SLP76 phosphorylation at S376.
as §1
Preparation of Beads wash buffer: 0.1 mL FBS and 0.4 mL 0.5 M EDTA (with a final concentration of 2 mM) were added to 100 mL PBS and stored in a 4° C. refrigerator for later use.
100× Protease Inhibitor Cocktail in 1/20 total volume was added and stored on wet ice for later use. The buffer was ready to use.
Cell inoculation and dosing: the 1000× drug stock plate was taken and melted at room temperature in the dark. […] Jurkat cells in the logarithmic growth phase were selected and collected. […] The cells were inoculated into a 96-well plate (the volume was 90 μL per well), and a blank control well (without cells inoculation, and in which 110 μL of medium was added) was set. 10 μL of a drug-containing culture medium (10×) was transferred from the 10× drug intermediate plate into the 96-well cell plate (with a final concentration of 0.1% DMSO), and set a DMSO control group (in which 0.1% DMSO was added to the treated cells), a stimulated control group (in which 10 μL of culture medium was added to treat cells) and an unstimulated group (in which 10 μL of culture medium was added to treat cells). The wells were duplicated, gently patted, mixed, and then placed into a 5% CO2 incubator at 37° C. for 1 h.
Anti-CD3 beads stimulation: Dynabeads anti-human CD3 was taken, shaken, and mixed for 60 s. The required volume of beads was pipetted, and an equal volume or at least 1 mL of washing solution was added to wash once. Fresh complete medium was then added to resuspend and adjust the density of the beads to 4×10^7/mL, and the beads were placed on ice for later use. At the end of drug pre-incubation, the cell culture plate was taken out. 10 μL Dynabeads anti-human CD3 was added to each well to treat the cells, and 10 μL the culture medium was added to the unstimulated group. The cell culture plate was shaken to mix well at 2500 rpm for 10 s, and then placed into a 5% CO2 incubator at 37° C. and continued to culture for 20 min.
Detection of p-SLP76 protein level: PathScan Phospho-SLP-76 (Ser376) Sandwich ELISA Kit was applied to detect p-SLP76 protein level. At the end of the Anti-CD3 beads stimulation, the cell culture plate was removed from the incubator. […] After lysis, the cell culture plate was centrifuged at 4° C., 400×g for 5 min. 25 μL of sample and 75 μL of sample diluent were added to each well, and the plate was placed in a 5% CO2 incubator at 37° C. for 2 h. The subsequent detection steps were carried out following the kit instructions, and the absorbance (OD value) of each well was read at 450 nm by a microplate reader.

[3] = HPK1 Kinase activity IC50, ADP-Glo

Row | SMILES | IC50 (HPK1 [2]) | further results
1 | Cc1c[nH]c2ncc(-c3cc4c(c(C5COCCN5)c3)CN(C(=O)[C@](C)(O)C(F)(F)F)CC4)cc12 (single isomer, unassigned) [Compound Z309-2] | – | IC50 (HPK1 [1]; [3]): 22.7 nM
2 | CCC(=O)N1CCc2cc(-c3cnc4[nH]cc(C)c4c3)cc(C3CCCN3)c2C1 (stereo not shown) [Compound Z35] | – | IC50 (HPK1 [1]; [3]): 0.87 nM
3 | Cc1cn(C2CC2)nc1C(=O)N1CCc2cc(-c3cnc4[nH]cc(C)c4c3)cc([C@@H]3CCCN3)c2C1 [Compound Z342, (S)-(1-cyclopropyl-4-methyl-1H-pyrazol-3-yl)-[6-(3-methyl-1H-pyrrolo[2,3-b]pyridin-5-yl)-8-[pyrrolidin-2-yl]-3,4-dihydro-2(1H)-isoquinolin-yl]methanone] | – | IC50 (HPK1 [1]; read-out: HPK1 Kinase activity IC50, ADP-Glo): 0.64 nM
4 | Cc1c[nH]c2ncc(-c3cc4c(c([C@H]5COCCN5)c3)CCN(C(=O)C3CCOCC3)C4)cc12 [Compound Z449, (S)-(7-(3-methyl-1H-pyrrolo[2,3-b]pyridin-5-yl)-5-(morpholin-3-yl)-3,4-dihydroisoquinolin-2(1H)-yl)(tetrahydro-2H-pyran-4-yl)methanone] | – | IC50 (HPK1 [1]; [3]): 12.4 nM
5 | O=C(N1CCC(O)CC1)N1CCc2cc(-c3cnc4[nH]cc(Cl)c4c3)cc([C@@H]3COCCN3)c2C1 [Compound Z555, (R)-(6-(3-chloro-1H-pyrrolo[2,3-b]pyridin-5-yl)-8-(morpholin-3-yl)-3,4-dihydroisoquinolin-2(1H)-yl)(4-hydroxypiperidin-1-yl)methanone] | 481 nM | –
6 | Cc1c[nH]c2ncc(-c3cc4c(c([C@@H]5COCCN5)c3)CN(C(=O)N3CCC(O)CC3)CC4)cc12 [Compound Z556, (R)-(4-hydroxypiperidin-1-yl)(6-(3-methyl-1H-pyrrolo[2,3-b]pyridin-5-yl)-8-(morpholin-3-yl)-3,4-dihydroisoquinolin-2(1H)-yl)methanone] | 962 nM | –
7 | Cc1c[nH]c2ncc(-c3cc4c(c([C@@H]5COCCN5)c3)CN(C(=O)N3CCC(O)C3)CC4)cc12 (stereo partly drawn) [Compound Z558, (3-hydroxypyrrolidin-1-yl)(6-(3-methyl-1H-pyrrolo[2,3-b]pyridin-5-yl)-8-((R)-morpholin-3-yl)-3,4-dihydroisoquinolin-2(1H)-yl)methanone] | 936 nM | –
8 | Cc1c[nH]c2ncc(-c3cc4c(c([C@@H]5COCCN5)c3)CN(C(=O)N3CCOC5CC53)CC4)cc12 (stereo partly drawn) [Compound Z562, (2-oxa-5-azabicyclo[4.1.0]heptan-5-yl)(6-(3-methyl-1H-pyrrolo[2,3-b]pyridin-5-yl)-8-((R)-morpholin-3-yl)-3,4-dihydroisoquinolin-2(1H)-yl)methanone] | 147 nM | –
9 | Cc1c[nH]c2ncc(-c3cc4c(c([C@@H]5COCCN5)c3)CN(C(=O)N3CC5(CCOCC5)C3)CC4)cc12 [Compound Z563, (R)-(6-(3-methyl-1H-pyrrolo[2,3-b]pyridin-5-yl)-8-(morpholin-3-yl)-3,4-dihydroisoquinolin-2(1H)-yl)(7-oxa-2-azaspiro[3.5]nonan-2-yl)methanone] | 174 nM | –
10 | Cc1c[nH]c2ncc(-c3cc4c(c([C@@H]5COCCN5)c3)CN(C(=O)N3CCC5(CCOCC5)C3)CC4)cc12 [Compound Z565, (R)-(6-(3-methyl-1H-pyrrolo[2,3-b]pyridin-5-yl)-8-(morpholin-3-yl)-3,4-dihydroisoquinolin-2(1H)-yl)(8-oxa-2-azaspiro[4.5]decan-2-yl)methanone] | 245 nM | –
11 | CCc1c[nH]c2ncc(-c3cc4c(c([C@@H]5COCCN5)c3)CN(C(=O)c3cnc(C)nc3)CC4)cc12 [Compound Z567, (R)-(6-(3-ethyl-1H-pyrrolo[2,3-b]pyridin-5-yl)-8-(morpholin-3-yl)-3,4-dihydroisoquinolin-2(1H)-yl)(2-methylpyrimidin-5-yl)methanone] | 125 nM | –
12 | CC1(C)CC(O)CN1C(=O)N1CCc2cc(-c3cnc4[nH]cc(Cl)c4n3)cc([C@@H]3COCCN3)c2C1 (stereo partly drawn) [Compound Z569, (6-(7-chloro-5H-pyrrolo[2,3-b]pyrazin-2-yl)-8-((R)-morpholin-3-yl)-3,4-dihydroisoquinolin-2(1H)-yl)(4-hydroxy-2,2-dimethylpyrrolidin-1-yl)methanone] | 154 nM | –
13 | C[C@H]1COCCN1C(=O)N1CCc2cc(-c3cnc4[nH]cc(Cl)c4n3)cc([C@@H]3COCCN3)c2C1 [Compound Z573] | 122 nM | –
14 | CN1C2CCC1CN(C(=O)N1CCc3cc(-c4cnc5[nH]cc(Cl)c5n4)cc([C@@H]4COCCN4)c3C1)C2 [Compound Z575, (6-(7-chloro-5H-pyrrolo[2,3-b]pyrazin-2-yl)-8-((R)-morpholin-3-yl)-3,4-dihydroisoquinolin-2(1H)-yl)(8-methyl-3,8-diazabicyclo[3.2.1]octan-3-yl)methanone] | 420 nM | –
15 | COc1c[nH]c2ncc(-c3cc4c(c([C@@H]5COCCN5)c3)CN(C(=O)C(C)(C)O)CC4)cc12 [Compound Z576, (R)-2-hydroxy-1-(6-(3-methoxy-1H-pyrrolo[2,3-b]pyridin-5-yl)-8-(morpholin-3-yl)-3,4-dihydroisoquinolin-2(1H)-yl)-2-methylpropan-1-one] | 188 nM | –
16 | Cc1cccnc1C#Cc1c[nH]c2ncc(-c3cc4c(c([C@@H]5COCCN5)c3)CN(C(=O)C(C)(C)O)CC4)cc12 [Compound Z578, (R)-2-hydroxy-2-methyl-1-(6-(3-50 ((3-methylpyridin-2-yl)ethynyl)-1H-pyrrolo[2,3-b]pyridin-5-yl)-8-(morpholin-3-yl)-3,4-dihydroisoquinolin-2(1H)-yl)propan-1-one] | 163 nM | –
17 | Cc1c[nH]c2ncc(-c3cc4c(c([C@@H]5COCCN5)c3)CN(C(=O)N3CC5(COC5)C3)CC4)cc12 [Compound Z579, (R)-(6-(3-methyl-1H-pyrrolo[2,3-b]pyridin-5-yl)-8-(morpholin-3-yl)-3,4-dihydroisoquinolin-2(1H)-yl)(2-oxa-6-oxaspiro[3.3]heptan-6-yl)methanone] | 276 nM | –
18 | COc1c[nH]c2ncc(-c3cc4c(c([C@@H]5COCCN5)c3)CN(C(=O)N3C5CCC3COC5)CC4)cc12 [Compound Z582] | 160 nM | –
19 | N#Cc1c[nH]c2ncc(-c3cc4c(c([C@@H]5COCCN5)c3)CN(C(=O)N3C5CCC3COC5)CC4)nc12 [Compound Z583, 2-(2-(3-oxa-8-azabicyclo[3.2.1]octane-8-carbonyl)-8-((R)-morpholin-3-yl)-1,2,3,4-tetrahydroisoquinolin-6-yl)-5H-pyrrolo[2,3-b]pyrazine-7-carbonitrile] | 2670 nM | –
20 | O=C(N1CCc2cc(-c3cnc4[nH]cc(C(F)(F)F)c4n3)cc([C@@H]3COCCN3)c2C1)N1C2CCC1COC2 [Compound Z584, (3-oxa-8-azabicyclo[3.2.1]octan-8-yl)(8-((R)-morpholin-3-yl)-6-(7-(trifluoromethyl)-5H-pyrrolo[2,3-b]pyrazin-2-yl)-3,4-dihydroisoquinolin-2(1H)-yl)methanone] | 127 nM | –
21 | COC1CCN(C(=O)N2CCc3cc(-c4cnc5[nH]cc(Cl)c5c4)cc([C@@H]4COCCN4)c3C2)CC1 [Compound Z589, (R)-(6-(3-chloro-1H-pyrrolo[2,3-b]pyridin-5-yl)-8-(morpholin-3-yl)-3,4-dihydroisoquinolin-2(1H)-yl)(4-methoxypiperidin-1-yl)methanone] | 246 nM | –
22 | COc1c[nH]c2ncc(-c3cc4c(c([C@@H]5COCCN5)c3)CN(C(=O)N3CC5CCC(C3)O5)CC4)cc12 [Compound Z592] | 215 nM | –
23 | CC(=O)c1c[nH]c2ncc(-c3cc4c(c([C@@H]5COCCN5)c3)CN(C(=O)C(C)(C)O)CC4)cc12 [Compound Z593, (R)-1-(6-(3-acetyl-1H-pyrrolo[2,3-b]pyridin-5-yl)-8-(morpholin-3-yl)-3,4-dihydroisoquinolin-2(1H)-yl)-2-hydroxy-2-methylpropan-1-one] | 317 nM | –
24 | C#Cc1c[nH]c2ncc(-c3cc4c(c([C@@H]5COCCN5)c3)CN(C(=O)C(C)(C)O)CC4)cc12 [Compound Z594, (R)-1-(6-(3-ethynyl-1H-pyrrolo[2,3-b]pyridin-5-yl)-8-(morpholin-3-yl)-3,4-dihydroisoquinolin-2(1H)-yl)-2-hydroxy-2-methylpropan-1-one] | 825 nM | –
25 | C[C@@H]1CN(C(=O)N2CCc3cc(-c4cnc5[nH]cc(Cl)c5c4)cc([C@@H]4COCCN4)c3C2)C[C@@H](C)O1 [Compound Z599, (6-(3-chloro-1H-pyrrolo[2,3-b]pyridin-5-yl)-8-((R)-morpholin-3-yl)-3,4-dihydroisoquinolin-2(1H)-yl)((2R,6R)-2,6-dimethylmorpholinyl)methanone] | 184 nM | –
26 | C[C@H]1COCCN1C(=O)N1CCc2cc(-c3cnc4[nH]cc(Cl)c4c3)cc([C@@H]3COCCN3)c2C1 [Compound Z613] | 136 nM | –
27 | Cc1c[nH]c2ncc(-c3cc4c(c([C@@H]5COCCN5)c3)CN(C(=O)[C@H]3CCOC3)CC4)nc12 [Compound Z630, (6-(7-methyl-5H-pyrrolo[2,3-b]pyrazin-2-yl)-8-((R)-morpholin-3-yl)-3,4-dihydroisoquinolin-2(1H)-yl)((S)-tetrahydrofuran-3-yl)methanone] | 247 nM | –
28 | O=C([C@H]1CCOC1)N1CCc2cc(-c3cnc4[nH]cc(Cl)c4c3)cc([C@@H]3COCCN3)c2C1 [Compound Z631, (6-(3-chloro-1H-pyrrolo[2,3-b]pyridin-5-yl)-8-((R)-morpholin-3-yl)-3,4-dihydroisoquinolin-2(1H)-yl)((S)-tetrahydrofuran-3-yl)methanone] | 240 nM | –
